Test results taken from patent US20260137697A1, “THIAZOLO[5,4-D]PYRIMIDINE COMPOUNDS, COMPOSITIONS COMPRISING THEM AND USES THEREOF” (University de Montreal, priority 2022, published 2026).

Experiments:
[1] = system: pERK, HCT116 cells; assay: Phospho-ERK inhibition, AlphaLISA p-ERK 1/2, HCT-116; type: cell-based, human; conditions: Table 3; for IC50: HCT116 cells (KRAS G13D), 1 h treatment; for HCT116 pERK (Ymin %): lowest % inhibition value of the pERK IC50 curve, above −20% = no paradoxical induction
Method: All cancer cell lines (A375, A101D, A2058, RKO, HT29 SK-MEL 30, IPC298, HepG2, HCT-116, Lovo, SW620, SW480, NCI-H358, NCI-H2122, Calu-6, NCIH2087, NCIH1755, NCIH1666 and Mewo) were obtained from ATCC and cultured in RPM1-1640 medium (Gibco) supplemented with 5% heat inactivated fetal bovine serum (FBS, Wisent) at 37° C. under 5% CO2. Cells were maintained in T175 flasks (Greiner). They were passaged by removing the culture medium, washing once in 10 mL of room temperature Phosphate Buffered Saline (PBS; Wisent) and incubating at 37° C. with 2 mL of 0.05% Trypsin (Thermo-Fisher). Trypsin was then inactivated by adding complete growth medium and the cells were then replated in a T175 culture dish at the appropriate dilution. All cell lines were routinely tested for mycoplasma contamination. Tissue type and mutational status of each cell line can be found in Table B.
(c) Measurement of Phospho-ERK Inhibition in Cultivated Human Cancer Cell Lines by the AlphaLISA® SureFire® Ultra™ p-ERK 1/2 (Thr2O2/Tyr204)
AlphaLISA® SureFire® Ultra™ p-ERK 1/2 (Thr202/Tyr204) analysis was conducted on cells plated in 100 μL of complete RPMI-1640 growth medium in 96-well flat-bottomed transparent dishes (Costar) at a density indicated in Table C. Cells were maintained overnight at 37° C. under 5% CO2 before treatment with compounds' dilution series for one hour. The cell density in cells/cm^2 corresponds to cell number divided by the area of one well of a 96-well plate (0.143 cm^2).
In a dilution series 100 μL/well of test substance dilution prepared in complete RPMI-1640 growth media was added to the cells. The dilution series is selected so that ten concentrations cover a range from 10 μM to 0.33 nM. If necessary, the initial concentration of 10 μM is increased to 100 μM or lowered to 1 μM (as in the case of A375 and H1666 cells, which are generally more sensitive to the compounds) and further dilution is carried out accordingly. The final concentration of DMSO in the assay is set at 0.5%.
After treatment, media was removed, and cells were lysed in 50 μL of 1× AlphaScreen Ultra Lysis Buffer (Perkin Elmer). The AlphaLISA® SureFire® Ultra™ p-ERK 1/2 (Thr202/Tyr204) (PerkinElmer) reactions were performed with 5 μL of cell lysate according to the manufacturer's specifications in 384-well proxyplates (Perkin Elmer) followed by overnight incubation of the reactions at room temperature in a humidified chamber. After completion of the reactions, the signals were recorded on an EnVision plate reader (Perkin Elmer) using built in AlphaLISA® settings.
The effect of each compound dilution on the pERK signal was expressed in % inhibition and calculated as follows. An internal 100% inhibition control (1 μM trametinib, cat. No. HY-10999; MedChem Express; CAS No. 871700-17-3) was included in each plate and used as a measure of pERK background. First, the value obtained for trametinib was subtracted from each data point. The average of DMSO (vehicle) controls (set as 0% inhibition) was established and used to calculate % inhibition:
The ability of each compound to inhibit pERK signal was expressed as an IC50 value obtained by plotting the inhibition values for each data point of a dilution series and fitting the obtained curves using a log(agonist) versus response—variable slope (four parameters) function using GraphPadPrism (V7.0) or Dotmatics Screening Ultra platform.
When present, paradoxical pERK induction is inferred from the negative % inhibition values observed in the pERK IC50 curves of a compound.

[2] = biological target: T1, BRAF (Homo sapiens, UniProt P15056); assay: BRAF kinase activity assay (ADP-Glo); type: biochemical; conditions: Table 3; 10 μM ATP, kinase-dead MEK1 substrate
T1 construct: GST; purchased Millipore Sigma B4062-10UG
Method: (§1) Compound preparation: solid samples of each substance in 1dram vials were suspended in DMSO (Fisher Scientific) at a stock concentration of 20 mM. Stocks were kept at −20° C. and protected from light. If solubility of the compound at 20 mM appeared to be an issue, the initial concentration of the DMSO stock was changed to 10 mM or 5 mM.
(§2) In vitro enzymatic reactions were used for evaluating compounds intrinsic activity against BRAF, CRAF and ARAF. For BRAF and CRAF, 0.375 nM of purified GST-tagged kinases (cat. No. B4062-10UG and cat. No. R1656-10UG respectively from Millipore Sigma) were incubated with 75 nM of kinase-dead MEK1 substrate (cat. No. 40075; BPS Bioscience) in the presence of 10 μM of Ultrapure ATP (cat. No. V9102; Promega; part V915A) with and without the test compound in a buffer containing 50 mM HEPES pH 7.5, 10 mM MgCl2, 1 mM EDTA, 0.01% Brij-35 and 2 mM DTT. Separate reactions were performed with the MEK1 substrate and ATP as a blank control. ARAF kinase reactions were rigorously the same with the exception that kinase concentration was raised to 3.75 nM (cat. No. 1768-0000-1; Reaction Biology).
(§3) For compound treatment, 5 μL/well of test substance solution are placed in a 384-well proxyplate (Perkin Elmer) and mixed with 2× concentrated kinase reactions. The dilution series is selected so that nine concentrations cover a range from 100 nM to 0.01 nM. […] The final concentration of DMSO in the assay is set at 0.05%.
(§4) BRAF and CRAF kinase reactions were carried out for a total of 2 hours at 30° C. and then stopped by 1/2 dilution in ADP-Glo Reagent (cat. No. V9102; Promega; part V912C). Reactions were then incubated for 1 h at room temperature before addition of one volume of Kinase Detection Reagent (cat. No. V9102; Promega; part V917A). Plates were then equilibrated at room temperature for 30 minutes before detection of luminescence on a Synergy Neo2 plate reader (Biotek). The effect of each compound dilution on BRAF and CRAF kinase activity was expressed as % inhibition and calculated as follows. First, the internal 100% inhibition control (average of luminescence in kinase reactions comprising kinase dead MEK1 substrate alone) was subtracted from each data point. The average of DMSO (vehicle) controls (set as 0% inhibition) was established and used to calculate % inhibition:
(§5) IC50 values were obtained by plotting the kinase inhibition values and fitting the dose-activity curves using a log(agonist) versus response—variable slope (four parameters) function using either GraphPadPrism (V7.0) or Dotmatics Screening Ultra platform. Standards included in the ARAF kinase assay were Belvarafenib (MedChem Express cat. No. HY-109080; CAS No. 1446113-23-0), LXH254 (MedChem Express cat. No. HY-112089; CAS No. 1800398-38-2) and BGB283 (cat. No. HY-18957; CAS No. 1446090-79-4).

[3] = biological target: T2, CRAF (Homo sapiens, UniProt P04049); assay: CRAF kinase activity assay (ADP-Glo); type: biochemical; conditions: Table 3; 10 μM ATP, kinase-dead MEK1 substrate
T2 construct: fused on or other part: GST tag (N-terminal according to the vendor's product)
Method: as §1, §2, §3, §4, §5

T2 sequence (P04049 whole entry Y340E/Y341E, form open, the tested form may be a part): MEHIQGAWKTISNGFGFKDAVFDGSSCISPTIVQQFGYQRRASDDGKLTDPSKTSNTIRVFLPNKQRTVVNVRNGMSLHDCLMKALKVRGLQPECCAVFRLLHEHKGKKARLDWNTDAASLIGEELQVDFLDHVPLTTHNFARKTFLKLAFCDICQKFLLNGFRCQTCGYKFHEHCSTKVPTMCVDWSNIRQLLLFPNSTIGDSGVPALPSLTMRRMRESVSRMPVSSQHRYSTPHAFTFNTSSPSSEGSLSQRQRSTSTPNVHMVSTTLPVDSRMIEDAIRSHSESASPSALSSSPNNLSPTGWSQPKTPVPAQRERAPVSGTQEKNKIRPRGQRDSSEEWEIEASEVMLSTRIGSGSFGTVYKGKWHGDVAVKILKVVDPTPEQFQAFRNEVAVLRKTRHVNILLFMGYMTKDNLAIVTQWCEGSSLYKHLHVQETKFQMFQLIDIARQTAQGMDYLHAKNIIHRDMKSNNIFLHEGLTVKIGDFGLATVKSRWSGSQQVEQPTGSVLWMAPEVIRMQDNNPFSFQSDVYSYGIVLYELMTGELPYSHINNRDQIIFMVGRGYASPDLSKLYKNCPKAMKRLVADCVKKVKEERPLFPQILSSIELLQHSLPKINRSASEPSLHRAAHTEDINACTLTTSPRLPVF
T1 sequence (P15056 whole entry): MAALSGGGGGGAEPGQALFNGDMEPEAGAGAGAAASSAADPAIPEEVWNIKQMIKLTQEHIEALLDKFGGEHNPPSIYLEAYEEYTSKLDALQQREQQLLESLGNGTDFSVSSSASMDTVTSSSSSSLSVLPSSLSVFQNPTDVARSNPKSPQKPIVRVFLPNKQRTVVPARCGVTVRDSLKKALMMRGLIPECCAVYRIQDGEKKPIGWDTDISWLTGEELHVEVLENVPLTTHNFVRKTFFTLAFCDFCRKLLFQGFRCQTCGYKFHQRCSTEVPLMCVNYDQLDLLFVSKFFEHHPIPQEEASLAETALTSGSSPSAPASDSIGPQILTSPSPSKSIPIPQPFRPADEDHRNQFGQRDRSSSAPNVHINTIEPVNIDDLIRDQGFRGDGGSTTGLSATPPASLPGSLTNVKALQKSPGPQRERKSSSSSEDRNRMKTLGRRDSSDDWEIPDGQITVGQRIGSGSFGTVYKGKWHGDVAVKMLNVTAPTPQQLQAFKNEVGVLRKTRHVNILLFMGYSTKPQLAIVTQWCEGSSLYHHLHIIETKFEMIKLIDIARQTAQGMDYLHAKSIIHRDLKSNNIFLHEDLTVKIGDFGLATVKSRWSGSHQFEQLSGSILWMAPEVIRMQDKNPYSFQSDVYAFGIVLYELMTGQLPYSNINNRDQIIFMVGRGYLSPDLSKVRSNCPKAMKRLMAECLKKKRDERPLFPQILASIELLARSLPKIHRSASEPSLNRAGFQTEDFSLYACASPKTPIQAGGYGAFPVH

| IC50 [1] | IC50 [2] | IC50 [3] | IC50 ([1]; Homo sapiens, HCT-116) | Compound | HCT116 pERK (Ymin %) [1] |
| --- | --- | --- | --- | --- | --- |
| < 500 nM | 1 to 10 nM | < 10 nM |  | Cc1c(F)cccc1S(=O)(=O)Nc1ccc(F)c(Nc2ncnc3sc(-n4cnc5c(C(C)(C)C#N)cccc54)nc23)c1F [Example 112] | 7% |
| 500 to 1000 nM | 1 to 10 nM | 10 to 50 nM |  | CC(C)(O)[C@@H]1CCCN1C(=O)c1cn(-c2nc3c(Nc4c(F)ccc(NS(=O)(=O)c5cccc(Cl)c5Cl)c4F)ncnc3s2)c2ccccc12 [Example 77] | −5% |
| 1000 to 10000 nM | 1 to 10 nM | > 50 nM |  | CC(=O)c1cn(-c2nc3c(Nc4c(F)ccc(NS(=O)(=O)c5cccc(Cl)c5Cl)c4F)ncnc3s2)c2ccccc12 [Example 88] | −8% |
| 500 to 1000 nM | 1 to 10 nM | 10 to 50 nM |  | O=S(=O)(Nc1ccc(F)c(Nc2ncnc3sc(-n4cnc(CCO)c4)nc23)c1F)c1cccc(Cl)c1Cl [Example 121] | −11% |
| 1000 to 10000 nM | > 10 nM | > 50 nM |  | O=S(=O)(Nc1ccc(F)c(Nc2ncnc3sc(-n4ccc5ccccc54)nc23)c1F)c1cccc(Cl)c1Cl [Example 114] | −14% |
| < 500 nM | < 1 nM | < 10 nM |  | O=S(=O)(Nc1ccc(F)c(Nc2ncnc3sc(-n4cnc5c(F)cccc54)nc23)c1F)c1cccc(Cl)c1Cl [Example 18] | 0% |
| < 500 nM | 1 to 10 nM | 10 to 50 nM |  | COCCCN(C)c1cccc2c1ncn2-c1nc2c(Nc3c(F)ccc(NS(=O)(=O)c4cccc(Cl)c4Cl)c3F)ncnc2s1 [Example 128] | 1% |
| 500 to 1000 nM | 1 to 10 nM | 10 to 50 nM |  | O=C(c1cn(-c2nc3c(Nc4c(F)ccc(NS(=O)(=O)c5cccc(Cl)c5Cl)c4F)ncnc3s2)c2ccc(Cl)cc12)N1C2CCC1COC2 [Example 81] | −8% |
|  | 1 to 10 nM | < 10 nM | < 500 nM | COc1cccc2c1ncn2-c1nc2c(Nc3c(F)ccc(NS(=O)(=O)c4cccc(Cl)c4Cl)c3F)ncnc2s1 [Example 99] |  |
| < 500 nM | 1 to 10 nM | 10 to 50 nM |  | Cc1c(Cl)cccc1S(=O)(=O)Nc1ccc(F)c(Nc2ncnc3sc(-n4cnc5c(C(C)(C)C#N)cccc54)nc23)c1F [Example 116] | −3% |
| < 500 nM | 1 to 10 nM | > 50 nM |  | COC1(C)CCN(c2cccc3c2ncn3-c2nc3c(Nc4c(F)ccc(NS(=O)(=O)c5cccc(Cl)c5Cl)c4F)ncnc3s2)CC1 [Example 135] | −5% |
| 500 to 1000 nM | 1 to 10 nM | 10 to 50 nM |  | COCCN(C)S(=O)(=O)c1cn(-c2nc3c(Nc4c(F)ccc(NS(=O)(=O)c5cccc(Cl)c5Cl)c4F)ncnc3s2)c2ccccc12 [Example 48] | 0% |
| 1000 to 10000 nM | > 10 nM | 10 to 50 nM |  | Cc1c(F)cccc1S(=O)(=O)Nc1ccc(F)c(Nc2ncnc3sc(-n4nc(C(=O)N5C6CCC5COC6)c5ccccc54)nc23)c1F [Example 34] | −13% |
| < 500 nM | 1 to 10 nM | 10 to 50 nM |  | CS(=O)(=O)N1CCN(c2cccc3c2ncn3-c2nc3c(Nc4c(F)ccc(NS(=O)(=O)c5cccc(Cl)c5Cl)c4F)ncnc3s2)CC1 [Example 155] | −12% |
| 500 to 1000 nM | 1 to 10 nM | < 10 nM |  | O=S(=O)(Nc1ccc(F)c(Nc2ncnc3sc(-n4cnc5c(F)cccc54)nc23)c1F)c1ccccc1Cl [Example 38] | −6% |
| < 500 nM | 1 to 10 nM | 10 to 50 nM |  | Cc1c(F)cccc1S(=O)(=O)Nc1ccc(F)c(Nc2ncnc3sc(-n4cc(C(=O)N(C)Cc5ccncc5)c5ccccc54)nc23)c1F [Example 30] | −3% |
| < 500 nM | < 1 nM | < 10 nM |  | CN(CCc1ccccn1)C(=O)c1cn(-c2nc3c(Nc4c(F)ccc(NS(=O)(=O)c5cccc(Cl)c5Cl)c4F)ncnc3s2)c2ccccc12 [Example 50] | 1% |
| 500 to 1000 nM | < 1 nM | < 10 nM |  | O=C(c1cn(-c2nc3c(Nc4c(F)ccc(NS(=O)(=O)c5cccc(Cl)c5Cl)c4F)ncnc3s2)c2cccc(F)c12)N1C2CCC1COC2 [Example 93] | 3% |
| < 500 nM | 1 to 10 nM | < 10 nM |  | NS(=O)(=O)c1cn(-c2nc3c(Nc4c(F)ccc(NS(=O)(=O)c5cccc(Cl)c5Cl)c4F)ncnc3s2)c2ccccc12 [Example 61] | −13% |
|  | 1 to 10 nM | < 10 nM | < 500 nM | N#Cc1cccc2c1ncn2-c1nc2c(Nc3c(F)ccc(NS(=O)(=O)c4cccc(Cl)c4Cl)c3F)ncnc2s1 [Example 120] |  |
|  | > 10 nM | > 50 nM | 1000 to 10000 nM | CC(C)C(=O)c1cn(-c2nc3c(Nc4c(F)ccc(NS(=O)(=O)c5cccc(Cl)c5Cl)c4F)ncnc3s2)c2ccccc12 [Example 92] |  |
